Measured values taken from US11780826B2 (Amgen Inc., priority 2017, dated 2023).

These compounds were tested on Bovine cardiac myofibrils (assay: In vitro model of dose-dependent myofibril ATPase modulation (AC1.4, pyruvate kinase/lactate dehydrogenase-coupled ATPase assay at pCa25)). Settings: concentration at which ATPase activity was 1.4-fold higher than the bottom of the dose curve, mean of a minimum of two independent tests.
Assay type: biochemical
How it was run: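 Coupled-enzyme ATPase on bovine heart myofibrils, 1 mM ATP, EGTA/CaCl2 buffered; 340 nm readout.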

Structure (SMILES) | AC1.4 [µM]
CS(=O)(=O)c1cc(F)cc(C(=O)N2[C@@H](C(=O)N[C@@H](c3ccc(C(F)(F)F)cc3F)C3COC3)C[C@H]3C[C@H]32)c1 [Example 219, (1R,3R,5R)-2-(3-fluoro-5-(methylsulfonyl)benzoyl)-N-((R)-(2-fluoro-4-(trifluoromethyl)phenyl)(3-oxetanyl)methyl)-2-azabicyclo[3.1.0]hexane-3-carboxamide] | 0.4808
CC(C)[C@H](NC(=O)[C@H]1CCCN1C(=O)c1cccc(S(=O)(=O)N2CC(C#N)C2)c1)c1ccc(C(F)(F)F)cc1F [Example 220, 1-(3-((3-cyano-1-azetidinyl)sulfonyl)benzoyl)-N-((1S)-1-(2-fluoro-4-(trifluoromethyl)phenyl)-2-methylpropyl)-D-prolinamide] | 0.4809
N#CC1CN(S(=O)(=O)N2CCC[C@H](C(=O)N3CCC[C@@H]3C(=O)NCc3ccc(F)c(F)c3)C2)C1 [Example 221, 1-(((3S)-1-((3-cyano-1-azetidinyl)sulfonyl)-3-piperidinyl)carbonyl)-N-(3,4-difluorobenzyl)-D-prolinamide] | 0.4821
CS(=O)(=O)c1ccnc(C(=O)N2CCC[C@@H]2C(=O)N[C@@H](c2cc(F)c(Cl)cc2F)C2CC2)c1 [Example 222, N-((R)-(4-chloro-2,5-difluorophenyl)(cyclopropyl)methyl)-1-((4-(methylsulfonyl)-2-pyridinyl)carbonyl)-D-prolinamide] | 0.4825
O=C(N[C@@H](c1ccc(C(F)(F)F)cc1F)C1CC1)[C@H]1CCCN1C(=O)c1cccc(S(=O)(=O)C2CC2)c1 [Example 223, N-((R)-cyclopropyl(2-fluoro-4-(trifluoromethyl)phenyl)methyl)-1-(3-(cyclopropylsulfonyl)benzoyl)-D-prolinamide] | 0.4842
NS(=O)(=O)c1cccc(C(=O)N2CCC[C@@H]2C(=O)N[C@@H](c2cc(F)c(Cl)cc2F)C2CC2)c1 [Example 224, N-((R)-(4-chloro-2,5-difluorophenyl)(cyclopropyl)methyl)-1-(3-sulfamoylbenzoyl)-D-prolinamide] | 0.485
O=C(N[C@@H](c1cc(F)c(C(F)(F)F)cc1F)C1CC1)[C@H]1C[C@H]2C[C@H]2N1C(=O)c1ccnc(C(F)(F)F)c1 [Example 225, (1R,3R,5R)-N-((R)-cyclopropyl(2,5-difluoro-4-(trifluoromethyl)phenyl)methyl)-2-((2-(trifluoromethyl)-4-pyridinyl)carbonyl)-2-azabicyclo[3.1.0]hexane-3-carboxamide] | 0.4889
O=C(NCc1ccc(C(F)(F)F)cc1)[C@H]1CCCN1C(=O)[C@H]1CCCN(S(=O)(=O)N2CC(c3ccon3)C2)C1 [Example 227, 1-(((3S)-1-((3-(1,2-oxazol-3-yl)-1-azetidinyl)sulfonyl)-3-piperidinyl)carbonyl)-N-(4-(trifluoromethyl)benzyl)-D-prolinamide] | 0.4927
CNc1ccc(S(C)(=O)=O)cc1C(=O)N1CCC[C@@H]1C(=O)N[C@@H](c1ccc(C(F)(F)F)cc1F)C1CC1 [Example 228, N-((R)-cyclopropyl(2-fluoro-4-(trifluoromethyl)phenyl)methyl)-1-(2-(methylamino)-5-(methylsulfonyl)benzoyl)-D-prolinamide] | 0.4974
CC(C)[C@H](NC(=O)[C@H]1CCCN1C(=O)[C@H]1CCCN(S(=O)(=O)N2CC(C#N)C2)C1)c1ccc(C(F)(F)F)cc1F [Example 229, 1-(((3S)-1-((3-cyano-1-azetidinyl)sulfonyl)-3-piperidinyl)carbonyl)-N-((1S)-1-(2-fluoro-4-(trifluoromethyl)phenyl)-2-methylpropyl)-D-prolinamide] | 0.5053
Cc1cc(C(=O)N2[C@@H](C(=O)N[C@@H](c3ccc(C(F)(F)F)cc3F)C3CC3)C[C@H]3C[C@H]32)c(NC2CCC2)cn1 [Example 230, (1R,3R,5R)-2-((5-(cyclobutylamino)-2-methyl-4-pyridinyl)carbonyl)-N-((R)-cyclopropyl(2-fluoro-4-(trifluoromethyl)phenyl)methyl)-2-azabicyclo[3.1.0]hexane-3-carboxamide] | 0.5074
O=C(N[C@@H](c1cc(F)c(Cl)cc1F)C1CC1)[C@H]1C[C@H]2C[C@H]2N1C(=O)c1ccnc(C(F)(F)F)c1 [Example 231, (1R,3R,5R)-N-((R)-(4-chloro-2,5-difluorophenyl)(cyclopropyl)methyl)-2-((2-(trifluoromethyl)-4-pyridinyl)carbonyl)-2-azabicyclo[3.1.0]hexane-3-carboxamide] | 0.5188
CS(=O)(=O)c1cccc(C(=O)N2CCC[C@@H]2C(=O)N[C@@H](c2ccc(C(F)(F)F)cc2F)C2COC2)c1 [Example 232, N-((R)-(2-fluoro-4-(trifluoromethyl)phenyl)(3-oxetanyl)methyl)-1-(3-(methylsulfonyl)benzoyl)-D-prolinamide] | 0.5201
O=C(N[C@@H](c1cc(F)c(Cl)cc1F)C1COC1)[C@H]1C[C@H]2C[C@H]2N1C(=O)c1cc(C(F)(F)F)ccn1 [Example 233, (1R,3R,5R)-N-((R)-(4-chloro-2,5-difluorophenyl)(3-oxetanyl)methyl)-2-((4-(trifluoromethyl)-2-pyridinyl)carbonyl)-2-azabicyclo[3.1.0]hexane-3-carboxamide] | 0.5241
CC1(C)CN(S(=O)(=O)c2cccc(C(=O)N3CCC[C@@H]3C(=O)NCc3ccc(C(F)(F)F)cc3)c2)C1 [Example 234, 1-((3-((3,3-dimethyl-1-azetidinyl)sulfonyl)phenyl)carbonyl)-N-(4-(trifluoromethyl)benzyl)-D-prolinamide] | 0.5321
CS(=O)(=O)c1cncc(C(=O)N2CC[C@H](C(F)(F)F)[C@H]2C(=O)N[C@@H](c2cc(F)c(C(F)(F)F)cc2F)C2CC2)c1 [Example 236, (3S)-N-((R)-cyclopropyl(2,5-difluoro-4-(trifluoromethyl)phenyl)methyl)-1-((5-(methylsulfonyl)-3-pyridinyl)carbonyl)-3-(trifluoromethyl)-L-prolinamide] | 0.5579
O=C(NCc1ccc(C(F)(F)F)cc1F)[C@H]1CCCN1C(=O)[C@H]1CCCN(S(=O)(=O)N2CC(OCCF)C2)C1 [Example 237, 1-(((3S)-1-((3-(2-fluoroethoxy)-1-azetidinyl)sulfonyl)-3-piperidinyl)carbonyl)-N-(2-fluoro-4-(trifluoromethyl)benzyl)-D-prolinamide] | 0.5593

The next lines start with the values.

AC1.4 [µM] | Structure (SMILES)
0.5606 | O=C(NCc1ccc(Cl)c(F)c1)[C@H]1CCCN1C(=O)c1cccc(S(=O)(=O)N2CC(F)(F)C2)c1 [Example 238, N-(4-chloro-3-fluorobenzyl)-1-(3-((3,3-difluoro-1-azetidinyl)sulfonyl)benzoyl)-D-prolinamide]
0.5676 | N#CC1CN(S(=O)(=O)N2CCN[C@H](C(=O)N3CCC[C@@H]3C(=O)NCc3ccc(C(F)(F)F)cc3)C2)C1 [Example 239, 1-(((2S)-4-((3-cyano-1-azetidinyl)sulfonyl)-2-piperazinyl)carbonyl)-N-(4-(trifluoromethyl)benzyl)-D-prolinamide]
0.5685 | N#CC1CN(S(=O)(=O)N2CCC[C@H](C(=O)N3C[C@H](O)C[C@@H]3C(=O)NCc3ccc(C(F)(F)F)cc3)C2)C1 [Example 240, (2R,4R)-1-((S)-1-((3-cyanoazetidin-1-yl)sulfonyl)piperidine-3-carbonyl)-4-hydroxy-N-(4-(trifluoromethyl)benzyl)pyrrolidine-2-carboxamide]
0.5692 | CS(=O)(=O)c1cncc(C(=O)N2CCC(C(F)(F)F)C2C(=O)N[C@@H](c2cc(F)c(C(F)(F)F)cc2F)C2CC2)c1 (stereo partly drawn) [Example 241, N-((R)-cyclopropyl(2,5-difluoro-4-(trifluoromethyl)phenyl)methyl)-1-(5-(methylsulfonyl)nicotinoyl)-3-(trifluoromethyl)pyrrolidine-2-carboxamide]
0.573 | COc1cccc2c1CCC2NC(=O)[C@H]1CCCN1C(=O)[C@H]1CCCN(S(=O)(=O)N2CC(C#N)C2)C1 (stereo partly drawn) [Example 242, (2R)-1-((S)-1-((3-cyanoazetidin-1-yl)sulfonyl)piperidine-3-carbonyl)-N-(4-methoxy-2,3-dihydro-1H-inden-1-yl)pyrrolidine-2-carboxamide]
0.5746 | Cc1ccc(CNC(=O)[C@H]2CCCN2C(=O)[C@H]2CCCN(S(=O)(=O)N3CC(C#N)C3)C2)cc1 [Example 243, 1-(((3S)-1-((3-cyano-1-azetidinyl)sulfonyl)-3-piperidinyl)carbonyl)-N-(4-methylbenzyl)-D-prolinamide]
0.5793 | CS(=O)(=O)c1cccc(C(=O)N2[C@@H](C(=O)NC(c3ccc(C(F)(F)F)cc3F)C3CNC(=O)C3)C[C@H]3C[C@H]32)c1 (stereo partly drawn) [Example 244, (1R,3R,5R)-N-((2-fluoro-4-(trifluoromethyl)phenyl)(5-oxopyrrolidin-3-yl)methyl)-2-(3-(methylsulfonyl)benzoyl)-2-azabicyclo[3.1.0]hexane-3-carboxamide]
0.582 | CC[C@@H](NC(=O)[C@H]1CCCN1C(=O)[C@H]1CCCN(S(=O)(=O)N2CC(C#N)C2)C1)c1cc(F)cc(F)c1 [Example 245, 1-(((3S)-1-((3-cyano-1-azetidinyl)sulfonyl)-3-piperidinyl)carbonyl)-N-((1R)-1-(3,5-difluorophenyl)propyl)-D-prolinamide]
0.582 | CCS(=O)(=O)c1cccc(C(=O)N2[C@@H](C(=O)N[C@@H](c3ccc(C(F)(F)F)cc3F)C3CC3)C[C@H]3C[C@H]32)c1 [Example 246, (1R,3R,5R)-N-((R)-cyclopropyl(2-fluoro-4-(trifluoromethyl)phenyl)methyl)-2-(3-(ethylsulfonyl)benzoyl)-2-azabicyclo[3.1.0]hexane-3-carboxamide]
